The molecules below were run on T47D cell line (assay: Cell growth inhibition in T47D cell line). Conditions: Homo sapiens.
Assay type: cell-based

Q: For `O=C1CC[C@H](N2Cc3c(ccc4c3OC[C@@H](CN3CCC5(CC3)CCN(c3ccc([C@@H]6c7ccc(O)cc7CC[C@@H]6c6ccccc6)cc3)CC5)O4)C2=O)C(=O)N1` [THP-B370], which IC50 is on record?
A: 1 to 10 nM

Q: `O=C1CC[C@H](N2Cc3c(ccc4c3OC[C@@H](CN3CC5(CCN(c6ccc([C@@H]7c8ccc(O)cc8CC[C@@H]7c7ccccc7)cc6)CC5)C3)O4)C2=O)C(=O)N1` [THP-B375] was tested. Which IC50 did it give?
A: < 1 nM

Q: For `O=C1CCC(N2Cc3cc4c(cc3C2=O)OC[C@H](CN2CCC3(CC2)CCN(c2ccc([C@@H]5c6ccc(O)cc6CC[C@@H]5c5ccccc5)cc2)CC3)O4)C(=O)N1` (stereo partly drawn) [THP-B391, 3-((S)-2-((9-(4-((1R,2S)-6-hydroxy-2-phenyl-1,2,3,4-tetrahydronaphthalen-1-yl)phenyl)-3,9-diazaspiro[5.5]undecan-3-yl)methyl)-6-oxo-2,3,6,8-tetrahydro-7H-[1,4]dioxino[2,3-f]isoindol-7-yl)piperidine-2,6-dione], which IC50 is on record?
A: 1 to 10 nM

Q: With `O=C1CC[C@H](N2Cc3c(ccc4c3OC[C@H](CN3CCC5(CC3)CCN(c3ccc([C@@H]6c7ccc(O)cc7CC[C@@H]6c6ccccc6)cc3)CC5)O4)C2=O)C(=O)N1` [THP-B392] as the molecule, how does the IC50 read?
A: 1 to 10 nM

Q: How did the IC50 turn out when `O=C1CC[C@H](N2Cc3c(ccc4c3OC[C@H](CN3CC5(CCN(c6ccc([C@@H]7c8ccc(O)cc8CC[C@@H]7c7ccccc7)cc6)CC5)C3)O4)C2=O)C(=O)N1` [THP-B393] was run?
A: < 1 nM

These molecules were tested against GST-tagged wild-type human CRBN protein (Homo sapiens (Human), UniProt Q96SW2) (assay: Cereblon binding assay (CRBN TR-FRET, Cisbio Cereblon Binding Kit)). Conditions: XL665-labelled Thalidomide tracer, about 3 hours at room temperature.
Chain of GST-tagged wild-type human CRBN protein (Q96SW2 whole entry): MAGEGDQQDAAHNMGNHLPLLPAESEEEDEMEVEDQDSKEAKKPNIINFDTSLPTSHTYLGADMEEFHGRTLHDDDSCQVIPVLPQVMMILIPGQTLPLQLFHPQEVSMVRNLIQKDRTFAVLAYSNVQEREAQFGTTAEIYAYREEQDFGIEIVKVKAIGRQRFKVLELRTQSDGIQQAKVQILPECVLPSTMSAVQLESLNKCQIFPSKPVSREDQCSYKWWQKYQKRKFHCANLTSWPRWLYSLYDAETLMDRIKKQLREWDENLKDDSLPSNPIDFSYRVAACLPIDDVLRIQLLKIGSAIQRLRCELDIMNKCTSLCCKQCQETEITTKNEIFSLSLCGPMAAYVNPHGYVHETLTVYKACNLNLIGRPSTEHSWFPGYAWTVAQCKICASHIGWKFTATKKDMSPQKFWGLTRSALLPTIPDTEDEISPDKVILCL
Description: The binding to cereblon (CRBN) was determined using the Cereblon Binding Kit (Cisbio, #64BDCRBNPEG) following the manufacturer's instruction. Briefly, serially diluted compounds were incubated with GST-tagged wild-type human CRBN protein, XL665-labelled Thalidomide and Europium Cryptate labelled GST antibody at room temperature for about 3 hours. Time Resolved Fluorescence Resonance Energy Transfer (TR-FRET) measurements were acquired on a CALRIOstar plate reader with MARS data analysis software (BMG Labtech), with the following settings: 665/10 nm and 620/10 nm emission, 60 μs delay and 400 μs integration. The TR-FRET ratio was taken as the 665/620 nm intensity ratio.

Q: Which IC50 does the source give for `O=C1CC[C@H](N2Cc3c(ccc4c3OCC(COCc3ccccc3)O4)C2=O)C(=O)N1` (stereo in doubt) [Compound B1, (S)-3-((S)-3-((benzyloxy)methyl)-7-oxo-2,3,7,9-tetrahydro-8H-[1,4]dioxino[2,3-e]isoindol-8-yl)piperidine-2,6-dione] here?
A: 300 nM

Q: With `O=C1CC[C@H](N2Cc3c(ccc4c3OCC(CO)O4)C2=O)C(=O)N1` (stereo in doubt) [Compound B2, (S)-3-((S)-3-(hydroxymethyl)-7-oxo-2,3,7,9-tetrahydro-8H-[1,4]dioxino[2,3-e]isoindol-8-yl)piperidine-2,6-dione] as the molecule, how does the IC50 read?
A: 410 nM

Q: `O=C1CC[C@H](N2Cc3c(ccc4c3OC[C@H](COCc3ccccc3)O4)C2=O)C(=O)N1` [Compound B3, (S)-3-((S)-3-((benzyloxy)methyl)-7-oxo-2,3,7,9-tetrahydro-8H-[1,4]dioxino[2,3-e]isoindol-8-yl)piperidine-2,6-dione] was tested. Which IC50 did it give?
A: 120 nM

Q: For `O=C1CC[C@H](N2Cc3c(ccc4c3OC[C@H](CO)O4)C2=O)C(=O)N1` [Compound B4, (S)-3-((S)-3-(hydroxymethyl)-7-oxo-2,3,7,9-tetrahydro-8H-[1,4]dioxino[2,3-e]isoindol-8-yl)piperidine-2,6-dione], which IC50 is on record?
A: 310 nM

Q: How did the IC50 turn out when `O=C1CCC(N2Cc3c(ccc4c3OC[C@H](COCc3ccccc3)N4)C2=O)C(=O)N1` (stereo partly drawn) [Compound B5, 3-((S)-3-((benzyloxy)methyl)-7-oxo-3,4,7,9-tetrahydro-[1,4]oxazino[2,3-e]isoindol-8(2H)-yl)piperidine-2,6-dione] was run?
A: 120 nM

Q: With `O=C1CC[C@H](N2Cc3c(ccc4c3O[C@@H](CO)CO4)C2=O)C(=O)N1` [Compound B6, (S)-3-((S)-2-(hydroxymethyl)-7-oxo-2,3,7,9-tetrahydro-8H-[1,4]dioxino[2,3-e]isoindol-8-yl)piperidine-2,6-dione] as the molecule, how does the IC50 read?
A: 540 nM

Q: For `O=C1CC[C@H](N2Cc3c(ccc4c3O[C@H](CO)CO4)C2=O)C(=O)N1` [Compound B7, (S)-3-((R)-2-(hydroxymethyl)-7-oxo-2,3,7,9-tetrahydro-8H-[1,4]dioxino[2,3-e]isoindol-8-yl)piperidine-2,6-dione], which IC50 is on record?
A: 510 nM

Q: `O=C1CCC(N2Cc3c(ccc4c3O[C@H](CO)CO4)C2=O)C(=O)N1` (stereo partly drawn) [Compound B8, 3-((R)-2-(hydroxymethyl)-7-oxo-2,3,7,9-tetrahydro-8H-[1,4]dioxino[2,3-e]isoindol-8-yl)piperidine-2,6-dione] was tested. Which IC50 did it give?
A: 1000 nM

Q: How did the IC50 turn out when `O=C1CC[C@H](N2Cc3cc4c(cc3C2=O)OC[C@H](CO)O4)C(=O)N1` [Compound B11, (S)-3-((S)-2-(hydroxymethyl)-6-oxo-2,3,6,8-tetrahydro-7H-[1,4]dioxino[2,3-f]isoindol-7-yl)piperidine-2,6-dione] was run?
A: 3100 nM

Q: `O=C1CC[C@H](N2Cc3cc4c(cc3C2=O)OC[C@H](COCc2ccccc2)O4)C(=O)N1` [Compound B12, (S)-3-((S)-2-((benzyloxy)methyl)-6-oxo-2,3,6,8-tetrahydro-7H-[1,4]dioxino[2,3-f]isoindol-7-yl)piperidine-2,6-dione] was tested. Which IC50 did it give?
A: 3000 nM

Q: Which IC50 does the source give for `O=C1CCC(N2C(=O)c3cc4c(cc3C2=O)O[C@@H](COCc2ccccc2)CO4)C(=O)N1` (stereo partly drawn) [Compound B13, (2S)-2-((benzyloxy)methyl)-7-(2,6-dioxopiperidin-3-yl)-2,3-dihydro-6H-[1,4]dioxino[2,3-f]isoindole-6,8(7H)-dione] here?
A: 3100 nM

Q: With `O=C1CCC(N2C(=O)c3cc4c(cc3C2=O)O[C@@H](COCc2ccccc2)CO4)C(=O)N1` (stereo partly drawn) [Compound B14, (2S)-2-((benzyloxy)methyl)-7-(2,6-dioxopiperidin-3-yl)-2,3-dihydro-6H-[1,4]dioxino[2,3-f]isoindole-6,8(7H)-dione] as the molecule, how does the IC50 read?
A: 5160 nM

Q: For `O=C1CCC(N2C(=O)c3cc4c(cc3C2=O)OC(CO)CO4)C(=O)N1` (stereo not shown) [Compound B15, 7-(2,6-dioxopiperidin-3-yl)-2-(hydroxymethyl)-2,3-dihydro-6H-[1,4]dioxino[2,3-f]isoindole-6,8(7H)-dione], which IC50 is on record?
A: 7890 nM

The molecules below were run against ER (Homo sapiens (Human), UniProt P03372) (assay: In-Cell Western (ICW) ER degradation assay in MCF-7 and T47D cell lines). Conditions: ER level by In-Cell Western, 16 hrs treatment; MCF-7 and T47D described, cell line not given.
Chain of ER (P03372 whole entry): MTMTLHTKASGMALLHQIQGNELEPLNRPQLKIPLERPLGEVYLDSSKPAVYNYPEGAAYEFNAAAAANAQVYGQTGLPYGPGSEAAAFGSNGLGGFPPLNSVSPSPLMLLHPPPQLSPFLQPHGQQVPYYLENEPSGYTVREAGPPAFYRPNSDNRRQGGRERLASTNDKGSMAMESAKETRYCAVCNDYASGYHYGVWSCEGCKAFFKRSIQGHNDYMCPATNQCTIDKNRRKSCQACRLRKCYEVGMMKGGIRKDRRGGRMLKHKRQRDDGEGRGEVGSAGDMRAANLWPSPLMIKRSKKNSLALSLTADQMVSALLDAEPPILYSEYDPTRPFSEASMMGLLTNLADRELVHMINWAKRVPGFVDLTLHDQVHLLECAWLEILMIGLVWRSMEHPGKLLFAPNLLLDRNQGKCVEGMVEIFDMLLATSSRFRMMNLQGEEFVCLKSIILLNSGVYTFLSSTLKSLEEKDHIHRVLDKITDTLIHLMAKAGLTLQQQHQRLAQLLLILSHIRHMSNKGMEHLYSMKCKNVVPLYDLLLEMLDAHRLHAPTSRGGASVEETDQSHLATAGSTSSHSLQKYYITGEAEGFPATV
Assay type: cell-based
Description: Subsequently, cells were blocked with Intercept (PBS) Blocking Buffer (Li-COR, Odyssey Blocking Buffer), and were stained with ER (1:500, Cell signaling) primary antibody for overnight at cold room. • Day 4: Remove the buffer, add IRDye 800CW Goat anti-Rabbit IgG Secondary Antibody (1:2000) and CellTag 700 Stain (1:500) in Intercept (PBS) Blocking Buffer. Finally, cell plate is placed in incubator to dry. Image and signal were captured on Odyssey® DLx Imaging System.
In-cell western blot analysis. a. seed cells in black-sided/clear bottom 96- or 384-well plates at 40,000 or 10,000 cells/well, overnight; b. add diluted compounds (final 0.5% DMSO), 16 hours. 16 h later, remove medium, add 100 μL or 25 μL of 3.7-4.0% formaldehyde (PBS:FA=9:1), RT 20 min, no shaking; c. wash with PBS, and permeabilized with 100 μL or 25 μL/well of 1×PBS+0.1% Triton X-100 10 minutes; d. block with 100 μL or 25 μL Licor blocking buffer (Li-Cor), RT 1 h, moderate shaking; d. Add 100 μL or 25 μL of anti-ER (cs-8644, 1:500-1,000)+GAPDH (Millipore MAB374, 1:1000) in Block+0.05% Tween 20. RT 2 h, gentle shaking.
Negative control: cells plus secondary antibodies (no primary antibodies); e. wash ×4 with PBS+0.05-0.1% Tween 20, gentle shaking; f. anti-rabbit-680 and anti-mouse-800 (both 1:1000 in LiCor block+0.05% Tween20, RT 1 h, gentle shaking, no light. LI-COR: 0.2% to reduce background; g. wash ×4 with PBS+0.05% Tween 20, gentle shaking; h. add 100 μL or 25 μL of PBS to each well and read on CLX plate reader. The relative ER percentage in treated cells were obtained by comparing the values of treated wells to those in untreated and DMSO-treated wells as 100%.

Q: With `O=C1CC[C@H](N2Cc3c(ccc4c3OC[C@@H](CN3CCC5(CC3)CCN(c3ccc([C@@H]6c7ccc(O)cc7CC[C@@H]6c6ccccc6)cc3)CC5)O4)C2=O)C(=O)N1` [THP-B370] as the molecule, how does the DC50 read?
A: > 100 nM

Q: `O=C1CC[C@H](N2Cc3c(ccc4c3OC[C@@H](CN3CC5(CCN(c6ccc([C@@H]7c8ccc(O)cc8CC[C@@H]7c7ccccc7)cc6)CC5)C3)O4)C2=O)C(=O)N1` [THP-B375] was tested. Which DC50 did it give?
A: 10 to 100 nM

Q: For `O=C1CC[C@H](N2Cc3c(ccc4c3OC[C@H](CN3CCC5(CC3)CCN(c3ccc([C@@H]6c7ccc(O)cc7CC[C@@H]6c6ccccc6)cc3)CC5)O4)C2=O)C(=O)N1` [THP-B387], which DC50 is on record?
A: > 100 nM

Q: Which DC50 does the source give for `O=C1CCC(N2Cc3cc4c(cc3C2=O)OC[C@H](CN2CCC3(CC2)CCN(c2ccc([C@@H]5c6ccc(O)cc6CC[C@@H]5c5ccccc5)cc2)CC3)O4)C(=O)N1` (stereo partly drawn) [THP-B391, 3-((S)-2-((9-(4-((1R,2S)-6-hydroxy-2-phenyl-1,2,3,4-tetrahydronaphthalen-1-yl)phenyl)-3,9-diazaspiro[5.5]undecan-3-yl)methyl)-6-oxo-2,3,6,8-tetrahydro-7H-[1,4]dioxino[2,3-f]isoindol-7-yl)piperidine-2,6-dione] here?
A: > 100 nM
